According to PubChem BioAssay AID1963958 (Molecular Pharmacology Branch, DTP, NCI, 2024):

Test system: MDA-MB-231 multicell spheroids, viability
Assay: Anticancer human tumor MDA-MB-231 cell line growth inhibition [PI3K];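 also: spheroids exposed to agents for seven days before reading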;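 as to viability, T/C: percent of vehicle control luminescence with DMSO treated spheroids as 100%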
Settings: for IC50: curve of first compound; for viability, T/C: stronger effect = lower value
Source text: Combinatorial screen of targeted agents with the PI3K inhibitors inavolisib, alpelisib, duvelisib, and copanlisib in multi-cell type tumor spheroids
A high-throughput screen of multi-cell type tumor spheroids was designed to identify active combinations of targeted small molecules and PI3K pathway inhibitors. Complex spheroids include a stromal component modeled by human endothelial cells (HUVEC) and fibroblasts modeled by human mesenchymal stem cells (MSCs). The concentration ranges selected for each drug and investigational agent were based upon clinically achievable concentrations if the clinical Cmax of the agent was known.
Compounds. The drugs and investigational agents: inavolisib (NSC800729), alpelisib (NSC765974), duvelisib (NSC772469), copanlisib (NSC816437), ipatasertib (NSC767898), afuresertib (NSC778305), talazoparib (NSC767125), sapanisertib (NSC764658), selumetinib (NSC741078), tovorafenib (DAY101, NSC766906), vemurafenib (NSC761431), ravoxertinib (NSC781343), sotorasib (NSC818433), MRTX1133 (NSC 836407), abemaciclib (NSC 768073), palbociclib (NSC758247), venetoclax (NSC 766270), SY5609 (NSC837396), enzalutamide (NSC755605), and darolutamide (NSC825331), were obtained from the National Cancer Institute (NCI) Developmental Therapeutics Program Chemical Repository. The FDA-approved anticancer drug set is available from the NCI Developmental Therapeutics Program. […] The stock solutions were prepared in dimethyl sulfoxide (DMSO, Sigma-Aldrich, St. Louis, MO, cat. D2650) at 800-fold the tested concentration and stored at -70 degrees C prior to their use. All drugs and investigational agents were tested over a range starting from a high concentration at or near the clinical Cmax and decreasing in half-log increments. If the clinical Cmax for an agent had not been determined, the highest concentration tested was 10 microM.
Cell Culture. All cells were maintained in an incubator at 37 degrees C and 5% CO2 with 95% humidity. The PDC lines were cultured according to standard operating procedures established by the NCI PDMR (https://pdmr.cancer.gov/sops/default.htm). All PDCs were thawed and cultured in Matrigel-coated flasks prepared with a working solution of 1X Ham's F-12 nutrient mix, without supplementation (Invitrogen, Waltham, MA, cat. 11765054), 100 U/mL penicillin-streptomycin (Invitrogen, cat. 15140122), and 2.5% Matrigel (Corning Inc., Corning, NY, cat. 354248) for the first three passages. The 354836-022-R-J1-PDC, 475296-252-R-J1-PDC, and 997726-040-R-J2-PDC lines were cultured in 6A media, which includes advanced DMEM/F-12 (Thermo Fisher Scientific, cat. 12634028), 10 mM HEPES (Thermo Fisher Scientific, cat. 15630080), 1X GlutaMAX supplement (Thermo Fisher Scientific, cat. 35050061), 0.1 mg/mL primocin (InvivoGen, San Diego, CA, cat. ant-pm-2), 10% defined fetal bovine serum, heat inactivated (HyClone Laboratories Inc., Logan, UT, cat. SH30070.03HI), 50% L-WRN conditioned media (ATCC, cat. CRL-3276), 1.25 mM N-Acetyl-L-cysteine (Sigma-Aldrich, cat. A9165), 10 mM nicotinamide (Sigma-Aldrich, cat. N0636), 1X B-27 supplement (Thermo Fisher Scientific, cat. 17504044), 1X N-2 supplement (Thermo Fisher Scientific, cat. 17502048), and 10 microM Y-27632 dihydrochloride (Tocris Bioscience, Bristol, United Kingdom, cat. 1254). The 624824-186-R-J2-PDC line was cultured in 6C/Colon 1B media, which includes all 6A media components plus 50 ng/mL human EGF recombinant protein (Thermo Fisher Scientific, cat. PHG0311). […]

[1] = second compound 0.00316 µM, first compound 0.0316 µM
[2] = second compound 0.00316 µM, first compound 0.1 µM
[3] = second compound 0.00316 µM, first compound 0.316 µM
[4] = second compound 0.00316 µM, first compound 1 µM
[5] = second compound 0.00316 µM, first compound 3.16 µM
[6] = second compound 0.00316 µM, first compound 10 µM
[7] = second compound 0.01 µM, first compound 0.0316 µM
[8] = second compound 0.01 µM, first compound 0.1 µM
[9] = second compound 0.01 µM, first compound 0.316 µM
[10] = second compound 0.01 µM, first compound 1 µM
[11] = second compound 0.01 µM, first compound 3.16 µM
[12] = second compound 0.01 µM, first compound 10 µM
[13] = second compound 0.0316 µM, first compound 0.0316 µM
[14] = second compound 0.0316 µM, first compound 0.1 µM
[15] = second compound 0.0316 µM, first compound 0.316 µM
[16] = second compound 0.0316 µM, first compound 1 µM
[17] = second compound 0.0316 µM, first compound 3.16 µM
[18] = second compound 0.0316 µM, first compound 10 µM
[19] = second compound 0.1 µM, first compound 0.0316 µM
[20] = second compound 0.1 µM, first compound 0.1 µM
[21] = second compound 0.1 µM, first compound 0.316 µM
[22] = second compound 0.1 µM, first compound 1 µM
[23] = second compound 0.1 µM, first compound 3.16 µM
[24] = second compound 0.1 µM, first compound 10 µM
[25] = second compound 0.316 µM, first compound 0.0316 µM
[26] = second compound 0.316 µM, first compound 0.1 µM
[27] = second compound 0.316 µM, first compound 0.316 µM
[28] = second compound 0.316 µM, first compound 1 µM
[29] = second compound 0.316 µM, first compound 3.16 µM
[30] = second compound 0.316 µM, first compound 10 µM
[31] = second compound 1 µM, first compound 0.0316 µM
[32] = second compound 1 µM, first compound 0.1 µM
[33] = second compound 1 µM, first compound 0.316 µM
[34] = second compound 1 µM, first compound 1 µM
[35] = second compound 1 µM, first compound 3.16 µM
[36] = second compound 1 µM, first compound 10 µM

CC1(C)CCC(CN2CCN(c3ccc(C(=O)NS(=O)(=O)c4ccc(NCC5CCOCC5)c([N+](=O)[O-])c4)c(Oc4cnc5[nH]ccc5c4)c3)CC2)=C(c2ccc(Cl)cc2)C1 + CC(Nc1ccc2c(c1)OCCn1cc(N3C(=O)OCC3C(F)F)nc1-2)C(N)=O
IC50 (second compound 0.00316 µM): 6.9 µM | IC50 (second compound 0.01 µM): 7.07 µM | IC50 (second compound 0.0316 µM): 6.41 µM | IC50 (second compound 0.1 µM): 5.45 µM | IC50 (second compound 0.316 µM): 4.72 µM | IC50 (second compound 1 µM): 4.36 µM | viability, T/C [1]: 95.8% | viability, T/C [2]: 92.2% | viability, T/C [3]: 104% | viability, T/C [4]: 111% | viability, T/C [5]: 105% | viability, T/C [6]: 25.5% | viability, T/C [7]: 94.1% | viability, T/C [8]: 99.1% | viability, T/C [9]: 94.9% | viability, T/C [10]: 96.4% | viability, T/C [11]: 92.2% | viability, T/C [12]: 31.8% | viability, T/C [13]: 83.8% | viability, T/C [14]: 77.5% | viability, T/C [15]: 79.3% | viability, T/C [16]: 85.8% | viability, T/C [17]: 86.6% | viability, T/C [18]: 29.5% | viability, T/C [19]: 77.2% | viability, T/C [20]: 69.1% | viability, T/C [21]: 71.4% | viability, T/C [22]: 69.6% | viability, T/C [23]: 69.8% | viability, T/C [24]: 28.2% | viability, T/C [25]: 64% | viability, T/C [26]: 64.6% | viability, T/C [27]: 61.1% | viability, T/C [28]: 66.4% | viability, T/C [29]: 70.6% | viability, T/C [30]: 21.4% | viability, T/C [31]: 64.9% | viability, T/C [32]: 60.2% | viability, T/C [33]: 60.8% | viability, T/C [34]: 60.2% | viability, T/C [35]: 65.5% | viability, T/C [36]: 18.3%

C[C@@H](NC(=O)c1ncnc(N)c1Cl)c1ncc(C(=O)Nc2cc(C(F)(F)F)c(Cl)cn2)s1 + CC(Nc1ccc2c(c1)OCCn1cc(N3C(=O)OCC3C(F)F)nc1-2)C(N)=O
IC50 (second compound 0.00316 µM): > 10 µM | IC50 (second compound 0.01 µM): > 10 µM | IC50 (second compound 0.0316 µM): 3.49 µM | IC50 (second compound 0.1 µM): 1.36 µM | IC50 (second compound 0.316 µM): 0.625 µM | IC50 (second compound 1 µM): 0.337 µM | viability, T/C [1]: 119% | viability, T/C [2]: 93% | viability, T/C [3]: 86.7% | viability, T/C [4]: 86.9% | viability, T/C [5]: 73.9% | viability, T/C [6]: 50.6% | viability, T/C [7]: 111% | viability, T/C [8]: 94.2% | viability, T/C [9]: 81.7% | viability, T/C [10]: 72.1% | viability, T/C [11]: 68.2% | viability, T/C [12]: 49% | viability, T/C [13]: 91.3% | viability, T/C [14]: 75.1% | viability, T/C [15]: 66.1% | viability, T/C [16]: 62.7% | viability, T/C [17]: 52.3% | viability, T/C [18]: 40.8% | viability, T/C [19]: 83% | viability, T/C [20]: 66.4% | viability, T/C [21]: 58.8% | viability, T/C [22]: 54.1% | viability, T/C [23]: 48.3% | viability, T/C [24]: 32.6% | viability, T/C [25]: 77.8% | viability, T/C [26]: 66.3% | viability, T/C [27]: 54.8% | viability, T/C [28]: 45.6% | viability, T/C [29]: 41% | viability, T/C [30]: 33% | viability, T/C [31]: 67.4% | viability, T/C [32]: 55.4% | viability, T/C [33]: 49.5% | viability, T/C [34]: 44.8% | viability, T/C [35]: 38.4% | viability, T/C [36]: 28.8%
